{"source": "patent US20200069583A1", "about": "“IN SITU PHASE CHANGE GEL SUSTAINED-RELEASE SYSTEM FOR SMALL MOLECULE DRUG AND PREPARATION METHOD THEREOF” (SICHUAN UNIVERSITY, priority 2017, published 2020)", "key": {"[1]": {"experiment": "Cmax of other small molecule drugs in plasma, preparation versus original drug solution (Experimental Example 7)", "assay_type": "in vivo", "conditions": "male SD rats, subcutaneous; for Cmax: Sprague-Dawley (SD), rat, sc; for Phospholipid Span sustained release preparation Cmax: drug in preparation made by prescription and method of Example 1", "experimental": "In vivo experiments in animals were used to investigate the effects of other small molecule drugs on inhibiting burst release. […] The obtained phospholipid Span sustained release preparation and original drug solution of the other small molecule drugs (each drug was formulated with water, ethanol or DMSO for injection, depending on the specific solubility) were injected subcutaneously into male SD rats, whose blood was taken at regular intervals. The C. of the small molecule drugs in plasma was determined by high-performance liquid chromatography-mass spectrometry (LC-MS/MS), thereby investigating the effect on inhibiting burst release."}, "[2]": {"experiment": "In vivo pharmacokinetics of 2,4-dinitrophenol preparations, subcutaneous (Experimental Example 4)", "parameters": "species or system male SD rats", "experimental": "The product of Example 1 was injected subcutaneously into male SD rats, whose blood was taken at regular intervals. The content of 2,4-dinitrophenol in plasma was determined by high-performance liquid chromatography-mass spectrometry (LC-MS/MS), thereby investigating the sustained release effect thereof.\n200-220 g of SD rats were randomly divided into three groups, solution group (Test Example 4 in Experimental Example 1), phospholipid Span gel group (Example 1), and high-concentration phospholipid gel group (prepared according to patent CN102526753A). There were 6 rats in each group and they were injected subcutaneously at the dosage of 12.5 mg/kg. At the scheduled time point, blood was taken from the rat eye and placed in a heparin sodium anticoagulated test tube. After the sample was processed, the blood concentration was measured by LC-MS/MS injection.\nThe fomulation of the high-concentration phospholipid gel sustained release preparation (patent CN102526753A) is as follows: […]"}, "[3]": {"experiment": "In vivo pharmacokinetics of dabigatran etexilate preparations, subcutaneous (Experimental Example 5)", "conditions": "male, Sprague-Dawley (SD), rat, plasma, sc, SD rats, solution 11.4 mg/kg, gels 80 mg/kg", "experimental": "At the scheduled time point, blood was taken from the rat eye and placed in a heparin sodium anticoagulated test tube. After the sample was processed, the blood concentration was measured by LC-MS/MS."}, "[4]": {"experiment": "Blood concentration of 2,4-dinitrophenol in rats after subcutaneous dosing, surfactant comparison (Experimental Example 1)", "conditions": "Sprague-Dawley (SD), rat, in vivo, sc, 12.5 mg/kg 2,4-dinitrophenol, LC-MS/MS, surfactant 3.5 g varied", "experimental": "The following test was carried out in accordance with the preparation method of Example 1, except that the Span in the prescription of Example 1 was replaced with glyceryl dioleate (Test Example 1), Tween (Test Example 2) and sucrose acetate isobutyrate (Test Example 3). At the same time, the original drug solution group was designed (Test Example 4, 50 mg of the drug was dissolved in 10 mL of phosphate buffer (pH=7.6), and a solution of the same concentration as in Example 1 was prepared).\n200-220 g of SD rats were randomly divided into five groups, 6 rats in each group, and were administered subcutaneously with 12.5 mg/kg dosage of 2,4-dinitrophenol (Example 1, Test Example 1, Test Example 2, Test Example 3 and Test Example 4). At the scheduled time point, blood was taken from the rat eye and placed in a heparin sodium anticoagulated test tube. After the sample was processed, the blood concentration was measured by LC-MS/MS."}, "[5]": {"conditions": "drug in preparation made by prescription and method of Example 1, read-out: Phospholipid Span sustained release preparation Cmax"}, "[6]": {"conditions": "in vivo, drug in preparation made by prescription and method of Example 1, read-out: Phospholipid Span sustained release preparation Cmax"}, "[7]": {"conditions": "original drug solution in water, ethanol or DMSO for injection"}}, "note": "Where a name gives a salt, the structure may show the parent alone.", "data": [{"smiles": "COCCOC(=O)C1=C(C)NC(C)=C(C(=O)OC(C)C)C1c1cccc([N+](=O)[O-])c1", "note": "(stereo not shown) [Nimodipine]", "values": [{"measurement": "Cmax", "setting": "[1]; [5]", "value": "1510 ± 670", "unit": "ng/mL"}]}, {"smiles": "CCCCCCOC(=O)NC(=N)c1ccc(NCc2nc3cc(C(=O)N(CCC(=O)OCC)c4ccccn4)ccc3n2C)cc1", "note": "[Solution group, dabigatran etexilate]", "values": [{"measurement": "AUC (0→∞)", "setting": "[2]; SD rats, subcutaneous, 12.5 mg/kg, 2,4-dinitrophenol", "value": "10.19 ± 1.11", "unit": "mg·days/L"}, {"measurement": "AUC(0-t)", "setting": "[3]", "value": "1970 ± 474", "unit": "ng·h/mL"}, {"measurement": "Cmax", "setting": "[3]", "value": "244 ± 31.5", "unit": "ng/mL"}, {"measurement": "Tmax", "setting": "[3]", "value": "3.18 ± 0.21", "unit": "h"}, {"measurement": "half-life", "setting": "[3]", "value": "5.21 ± 0.83", "unit": "h"}, {"measurement": "MRT last", "setting": "[3]; read-out: MRT0-t", "value": "7.86 ± 1.14", "unit": "h"}]}, {"smiles": "Cn1c(=O)c2[nH]cnc2n(C)c1=O", "note": "[theophylline]", "values": [{"measurement": "Cmax", "setting": "[1]; [6]", "value": "1540 ± 320", "unit": "ng/mL"}]}, {"smiles": "CN(C)C(=N)N=C(N)N", "note": "[Metformin hydrochloride]", "values": [{"measurement": "Cmax", "setting": "[1]; [5]", "value": "820 ± 90", "unit": "ng/mL"}]}, {"smiles": "C/C=C1\\[C@H]2C=C(C)C[C@]1(N)c1ccc(=O)[nH]c1C2", "note": "[Huperzine A]", "values": [{"measurement": "Phospholipid Span sustained release preparation Cmax", "setting": "[1]", "value": "1330 ± 220", "unit": "ng/mL"}, {"measurement": "Original drug Cmax", "setting": "[1]; [7]", "value": "13870 ± 2860", "unit": "ng/mL"}]}, {"smiles": "COc1cccc2c1C(=O)c1c(O)c3c(c(O)c1C2=O)C[C@@](O)(C(=O)CO)C[C@@H]3O[C@H]1C[C@H](N)[C@H](O)[C@H](C)O1", "note": "[Doxorubicin]", "values": [{"measurement": "Cmax", "setting": "[1]; [5]", "value": "30 ± 10", "unit": "ng/mL"}]}, {"smiles": "C[C@@H]1C[C@H]2[C@@H]3CCC4=CC(=O)C=C[C@]4(C)[C@@]3(F)[C@@H](O)C[C@]2(C)[C@@]1(O)C(=O)CO", "note": "[Dexamethasone]", "values": [{"measurement": "Cmax", "setting": "[1]; male, drug in preparation made by prescription and method of Example 1, read-out: Phospholipid Span sustained release preparation Cmax", "value": "130 ± 50", "unit": "ng/mL"}, {"measurement": "Cmax", "setting": "[1]; male, original drug solution in water, ethanol or DMSO for injection, read-out: Original drug Cmax", "value": "530 ± 120", "unit": "ng/mL"}]}, {"smiles": "NC(=O)N1c2ccccc2C=Cc2ccccc21", "note": "[Carbamazepine]", "values": [{"measurement": "Cmax", "setting": "[1]; [5]", "value": "4460 ± 570", "unit": "ng/mL"}]}, {"smiles": "NS(=O)(=O)c1cc2c(cc1C(F)(F)F)NCNS2(=O)=O", "note": "[Hydroflumethiazido]", "values": [{"measurement": "Phospholipid Span sustained release preparation Cmax", "setting": "[1]", "value": "870 ± 520", "unit": "ng/mL"}, {"measurement": "Original drug Cmax", "setting": "[1]; [7]", "value": "5780 ± 2060", "unit": "ng/mL"}]}, {"smiles": "CCC1(c2ccccc2)C(=O)NC(=O)NC1=O", "note": "[Phenobarbital]", "values": [{"measurement": "Cmax", "setting": "[1]; [6]", "value": "2510 ± 680", "unit": "ng/mL"}]}, {"smiles": "CC(=O)Oc1ccccc1C(=O)O", "note": "[Aspirin]", "values": [{"measurement": "Cmax", "setting": "[1]; [5]", "value": "14600 ± 3120", "unit": "ng/mL"}]}, {"smiles": "O=[N+]([O-])c1ccc(O)c([N+](=O)[O-])c1", "note": "[Test Example4, 2,4-dinitrophenol]", "values": [{"measurement": "Cmax", "setting": "[4]", "value": 54500, "unit": "ng/mL"}, {"measurement": "Cmax", "setting": "[2]; male, Sprague-Dawley (SD), rat, in vivo, sc, 12.5 mg/kg, rats, subcutaneous, same dose, 2,4-dinitrophenol", "value": "~54500", "unit": "ng/mL"}, {"measurement": "Duration of drug release", "setting": "[2]; rats, same dose, original drug group", "value": 24, "unit": "h"}]}]}
